Laboratory results from patent US20120095063A1, “METHODS AND COMPOSITIONS FOR TREATMENT OF ISCHEMIC CONDITIONS AND CONDITIONS RELATED TO MITOCHONDRIAL FUNCTION” (priority 2009, published 2012).

What was measured:
[1] = tested on: myocardial ischemia-reperfusion (IR) injury; assay: Infarct size in rat model of myocardial ischemia-reperfusion (IR) injury; format: in vivo; conditions: 45 min ischemia, Epi 0.5 mg/kg and/or Nico 33 f× g/kg IV, repeated low dose, infarct size 48 h after IR
Experimental: The general methods for the implementation of the rat myocardial IR model are detailed elsewhere. The total time of myocardial ischemia was 45 min Dx-EPI (3 mg/kg) was mixed in saline solution and given IV via the jugular vein. Control animals received dextran saline solution injections. Infarct size was examined 48 h after IR using established procedures.
The general methods for the implementation of the rat myocardial IR model are described herein. The total time of myocardial ischemia was 45 min Treatment was administered a total of 1, 2 or 3 times. The initial dose was given15 min prior to reperfusion and then at 12 (in the case of 2× and 3× dosing) and again at 24 h (in the case of 3× dosing) after reperfusion. Epi (0.5 mg/kg) and/or Nico (33 f× g/kg) were mixed in water and given IV using the jugular vein. Control animals only received water injections. Infarct size was examined 48 h after IR using established procedures.

[2] = tested on: human skeletal muscle myocytes (HSKM cells); assay: Oxygen consumption rate in primary human skeletal muscle myocytes; format: cell-based; conditions: 48 hours, 300 nM FCCP
Experimental: Measured endogenous rates of respiration reflect the net balance between rates of energy utilization, energy production, and mitochondrial uncoupling. This was followed by induction of resting (State 4o) respiration with the addition of 1 uM oligomycin to inhibit ATP synthase. State 4 respiration is primarily determined by the rate of proton leak across the inner mitochondrial membrane. Maximal respiration was then assessed by the addition of 300 nM FCCP, a chemical uncoupler of oxidative phosphorylation. In intact cells, this rate reflects the maximal rates of substrate oxidation and electron transport chain activity. An increase in maximal rates can reflect changes in the regulation or expression level of oxidative enzymes, electron transport chain components, or total mitochondrial mass. […] As a control, nonmitochondrial O2 consumption was measured after the addition of 100 nM rotenone and 100 nM myxothiazol to completely block the respiratory chain.
Respiration of the intact cells was measured in unbuffered DMEM containing 10 mM glucose, 10 mM pyruvate, and 2 mM glutamine. In panel A, endogenous respiration was measured on HSKM cells, followed by state 4 (resting) respiration with the addition of 1 uM oligomycin (indicated as ‘A’), and then maximal rates were measured after the addition of 300 nM FCCP, a chemical uncoupler (indicated as ‘B’). […]

[3] = tested on: mitochondrial swelling (damage) induced by high calcium; assay: Calcium-induced mitochondrial swelling, EPI and NICO co-treatment, isobolographic analysis; format: biochemical; conditions: rat left ventricle mitochondria; 33 μM CaCl2; 535 nm, 30 min
Experimental: To determine the effect that (-)-epicatechin (EPI) and nicorandil (NICO) co-treatment has on mitochondrial swelling (damage) induced by high calcium, EPI or NICO, and EPI+NICO protective effects against calcium induced mitochondrial damage (swelling), were evaluated by monitoring changes in optical density (OD, light absorbance): Hearts from male rats were excised and weighed. Left ventricles were homogenized (0.1 g/mL) in solution A (Sucrose 2M, EDTA 0.01M, Hepes 0.5M: pH=7.4), centrifuged 10 min (800×g), 4° C., the supernatant was centrifuged 10 min (8000×g), 4° C. and the pellet was re-suspended in solution B (Sucrose 2M, EDTA 0.01M, Tris 0.5M-H2PO4-50 mM: pH=7.4) and centrifuged 10 min (10000×g), 4° C. Pellet was re-suspended in 10 mL of solution C (Sucrose 2M, EDTA 0.01M, Tris 0.5M-H2PO4-50 mM, Succinate 1M: pH=7.4. 33 μM of CaCl2 was then, added in order to induce mitochondrial […] (swelling measured through absorbace changes at 535 nm, monitored continuosly during 30 min Dose-response effects on mitochondrial swelling to EPI and NICO treatment were pursued.

[4] = tested on: electron transport chain proteins; assay: Western blot of mitochondrial electron transport chain proteins in C2C12 cells; format: cell-based, mouse; conditions: 1 μM, 48 hours
Description: Western blots of cell lysates were used to assess levels of mitochondrial to determine if improved respiration is due to enhanced mitochondrial biogenesis.

| Compound | reduction of infarct size vs. controls [1] [%] | stimulating mitochondrial function (maximal, uncoupler-stimulated respiration) [2] | effect on calcium-induced mitochondrial damage (swelling) [3] | expression level of the 20 kDa subunit of complex I [4] |
| --- | --- | --- | --- | --- |
| Oc1cc(O)c2c(c1)O[C@H](c1ccc(O)c(O)c1)[C@H](O)C2 [Epicatechin, (−)-epicatechin] | 27 |  |  |  |
| O=C(NCCO[N+](=O)[O-])c1cccnc1 [nicorandil, N-[2-(Nitroxy)ethyl]-3-pyridinecarboxamide] | 37 | active | can limit |  |
| catechin |  | active |  | clearly increased |
